# In US9493484B2, “Heterocyclic compound and use thereof” (Takeda Pharmaceutical Company Limited, priority 2012, dated 2016):
# Biological target: T1, GluR1 flip/stargazin (AMPA receptor) in CHO-K1/GluR1 flip/stargazin-expressing cells (Homo sapiens, UniProt P42261)
# T1 construct: expressed in transfected cells; host or cells: CHO-K1
# Experiment: AMPA receptor function-enhancing activity of compound, using calcium influx as an index
# Format: cell-based
# Details: test compound final concentration 30 μM with 3 mM glutamic acid, 100% = 3 mM glutamic acid + 300 μM cyclothiazide
# Description: Human GluR1 flip cDNA was amplified by PCR method using forward primer […] (SEQ ID NO: 1) and reverse primer […] (SEQ ID NO: 2) artificially synthesized using human brain-derived cDNA (BD Bioscience) as a template. The amplified product was digested with restriction enzymes EcoRI, NotI (TAKARA SHUZO CO. LTD.) and incorporated into the same site of pcDNA3.1(+) (Invitrogen) to construct pcDNA3.1(+)/human GluR1 flip gene. Human stargazin cDNA was amplified by PCR method using forward primer […] (SEQ ID NO: 3) and reverse primer […] (SEQ ID NO: 4) artificially synthesized using human hippocampus cDNA as a template. The amplified product was digested with restriction enzymes XhoI, BamHI (TAKARA SHUZO CO. LTD.) and incorporated into the same site of pcDNA3.1(−) (Invitrogen) to construct pcDNA3.1 Zeo(−)/human stargazing gene.
# CHO-K1 cells passaged in a culture medium (Ham's F12 medium (Invitrogen) added with 10% inactivated fetal bovine serum (Morgate) and penicillin, streptomycin (Invitrogen)) were detached using 0.05% trypsin and 0.53 mM EDTA (Invitrogen) diluted with D-PBS(−). The detached cells were suspended in a culture medium, and recovered by centrifugation at 1,000 rpm. The recovered cells were re-suspended in D-PBS(−) and added into 0.4 cm electroporation cuvette (BioRad). pcDNA3.1(+)/human GluR1 flip gene (5 μg) and pcDNA3.1 Zeo(−)/human stargazin gene (15 μg) were added, and introduced into CHO-K1 cells under the conditions of […], […] and using Gene Pulser II (BioRad). The introduced cells were cultured overnight in a culture medium. The next day, using a selection medium (culture medium added with zeocin (Invitrogen) at 250 μg/mL), the cells were plated in a 96 well plate at 250 cells/well. The clones showing drug resistance were selected, and GluR1 flip/stargazin expression clones were selected by an assay method shown below using calcium influx as an index.
# CHO-K1/GluR1 flip/stargazin-expressing cells were plated on a 96 well black bottom transparent plate (coaster) at 3×10^4 cells/well, and cultured for 2 days in a CO2 incubator (SANYO ELECTRIC Co. Ltd.) at 37° C. The medium of the cell plate was removed, a calcium indicator (Calcium4 Assay Kit, Molecular Device) dissolved in a liquid obtained by adding 1.25 mM probenecid (Invitrogen) to an assay buffer (140 mM NaCl, 5 mM KCl, 10 mM Glucose, 2 mM CaCl2, 1 mM MgCl2, 10 mM HEPES, pH 7.4, 0.1% BSA (SIGMA)) was added at 100 μL/well, and left in a CO2 incubator at 37° C. for 1 hr. A cell plate was set on CellLux (PerkinElmer), a mixture (50 μL) of 9 mM glutamic acid (final concentration 3 mM) diluted with an assay buffer and a test compound (test compound final concentration 30 μM) was added, and variation in the amount of fluorescence was measured for 2 min. The variation of fluorescence level of a well added with final concentration 3 mM glutamic acid and 300 μM cyclothiazide (TOCRIS, prepared from 100 mM dimethyl sulfoxide solution) was defined as 100%, the variation of fluorescence level of a well containing final concentration 3 mM glutamic acid and 0.33% dimethyl sulfoxide was defined as 0%, and the activity of the m compound was calculated by the following formula. activity (%)=(X−C)/(T−C)×100 T: variation of fluorescence level of well added with final concentration 3 mM of glutamic acid and 300 μM cyclothiazide C: variation of fluorescence level of well added with final concentration 3 mM of glutamic acid alone X: variation of fluorescence level of well added with final concentration 3 mM of glutamic acid and 30 μM test compound
# T1 sequence (P42261 19-906 isoform P42261-2 limits assumed): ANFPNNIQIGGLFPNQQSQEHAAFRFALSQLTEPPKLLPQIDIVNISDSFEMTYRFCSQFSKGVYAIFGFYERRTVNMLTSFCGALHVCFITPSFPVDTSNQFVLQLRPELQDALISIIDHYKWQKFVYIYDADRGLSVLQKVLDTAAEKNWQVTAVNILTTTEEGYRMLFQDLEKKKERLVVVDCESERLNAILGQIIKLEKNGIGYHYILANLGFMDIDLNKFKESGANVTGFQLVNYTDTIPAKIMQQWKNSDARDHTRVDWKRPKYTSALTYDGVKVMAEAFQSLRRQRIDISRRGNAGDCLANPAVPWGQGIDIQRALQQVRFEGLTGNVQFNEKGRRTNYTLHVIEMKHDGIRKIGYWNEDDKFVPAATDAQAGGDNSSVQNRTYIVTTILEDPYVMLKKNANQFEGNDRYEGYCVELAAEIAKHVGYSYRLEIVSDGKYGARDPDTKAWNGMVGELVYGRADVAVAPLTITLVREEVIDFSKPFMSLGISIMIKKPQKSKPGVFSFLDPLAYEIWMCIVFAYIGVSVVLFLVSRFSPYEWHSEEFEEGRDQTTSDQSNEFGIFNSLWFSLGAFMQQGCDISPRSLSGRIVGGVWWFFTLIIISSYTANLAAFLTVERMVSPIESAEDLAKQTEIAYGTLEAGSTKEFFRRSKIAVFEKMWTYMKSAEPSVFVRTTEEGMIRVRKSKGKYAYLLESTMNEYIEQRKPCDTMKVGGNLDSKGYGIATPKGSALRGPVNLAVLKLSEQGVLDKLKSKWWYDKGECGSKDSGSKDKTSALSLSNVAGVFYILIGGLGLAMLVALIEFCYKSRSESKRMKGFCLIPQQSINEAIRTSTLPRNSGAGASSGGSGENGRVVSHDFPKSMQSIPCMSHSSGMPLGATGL
# T1 sequence (Q9Y698 whole entry partner): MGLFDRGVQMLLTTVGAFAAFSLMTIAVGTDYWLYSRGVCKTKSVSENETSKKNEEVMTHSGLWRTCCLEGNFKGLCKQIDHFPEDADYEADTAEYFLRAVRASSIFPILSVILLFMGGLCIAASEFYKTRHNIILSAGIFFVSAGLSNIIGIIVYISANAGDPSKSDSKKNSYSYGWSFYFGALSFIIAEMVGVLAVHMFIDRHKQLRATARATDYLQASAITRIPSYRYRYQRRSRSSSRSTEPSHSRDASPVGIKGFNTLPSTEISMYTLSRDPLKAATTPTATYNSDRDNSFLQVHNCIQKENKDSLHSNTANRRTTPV
row,activity (%),Structure (SMILES)
1,87,"O=S1(=O)CCN2C(=N1)C1(c3ccc(OCC4CCCO4)cc3)CCC2CC1 (stereo not shown) [Example 38, 9-(4-(tetahydrofuran-2-ylmethoxy)phenyl)-3,4,6,7,8,9-hexahydro-6,9-ethanopyrido[2,1-c][1,2,4]thiadiazine 2,2-dioxide]"
2,87,"N#Cc1cccc(Oc2ccc(C34CCC(CC3)N3CCS(=O)(=O)N=C34)cc2)c1 [Example 16, 3-(4-(2,2-dioxido-3,4,7,8-tetrahydro-6,9-ethanopyrido[2,1-c][1,2,4]thiadiazin-9(6H)-yl)phenoxy)benzonitrile]"
3,26,"O=S1(=O)CCN2C(=N1)C1(c3ccc(Oc4ccc(Cl)cc4)cc3)CCC2CC1 [Example 1, 9-(4-(4-chlorophenoxy)phenyl)-3,4,6,7,8,9-hexahydro-6,9-ethanopyrido[2,1-c][1,2,4]thiadiazine 2,2-dioxide]"
4,92,"O=S1(=O)CCN2C(=N1)C1(c3ccc(Oc4cc(C(F)(F)F)ccn4)cc3)CCC2CC1 [Example 15, 9-(4-((4-(trifluoromethyl)pyridin-2-yl)oxy)phenyl)-3,4,6,7,8,9-hexahydro-6,9-ethanopyrido[2,1-c][1,2,4]thiadiazine 2,2-dioxide]"
5,87,"Cc1ccc(Oc2ccc(C34CCC(CC3)N3CCS(=O)(=O)N=C34)cc2)cc1C#N [Example 47, 5-(4-(2,2-dioxido-3,4,7,8-tetrahydro-6,9-ethanopyrido[2,1-c][1,2,4]thiadiazin-9(6H)-yl)phenoxy)-2-methylbenzonitrile]"
6,77,"O=S1(=O)CCN2CCCN(c3ccc(Oc4ccc(Cl)cc4)cc3)C2=N1 [Example 45, 9-(4-(4-chlorophenoxy)phenyl)-3,4,6,7,8,9-hexahydropyrimido[2,1-c][1,2,4]thiadiazine 2,2-dioxide]"
7,61,"O=S1(=O)CCN2C(=N1)C1(c3ccc(Oc4ncccn4)cc3)CCC2CC1 [Example 23, 9-(4-(pyrimidin-2-yloxy)phenyl)-3,4,6,7,8,9-hexahydro-6,9-ethanopyrido[2,1-c][1,2,4]thiadiazine 2,2-dioxide]"
8,22,"O=S1(=O)CCN2C(=N1)C1(c3ccc(OCc4cccc(Cl)c4)cc3)CCC2CC1 [Example 30, 9-(4-((3-chlorobenzyl)oxy)phenyl)-3,4,6,7,8,9-hexahydro-6,9-ethanopyrido[2,1-c][1,2,4]thiadiazine 2,2-dioxide]"
9,74,"CC(F)(F)c1cccc(Oc2ccc(C34CCC(CC3)N3CCS(=O)(=O)N=C34)cc2)c1 [Example 2, 9-(4-(3-(1,1-difluoroethyl)phenoxy)phenyl)-3,4,6,7,8,9-hexahydro-6,9-ethanopyrido[2,1-c][1,2,4]thiadiazine 2,2-dioxide]"

row,Structure (SMILES),activity (%)
1,"CC(C)COc1ccc(C23CCC(CC2)N2CCS(=O)(=O)N=C23)cc1 [Example 28, 9-(4-isobutoxyphenyl)-3,4,6,7,8,9-hexahydro-6,9-ethanopyrido[2,1-c][1,2,4]thiadiazine 2,2-dioxide]",91
